PMC6718442, “11β-Hydroxysteroid dehydrogenases control access of 7β,27-dihydroxycholesterol to retinoid-related orphan receptor γ” (Journal of Lipid Research, 2019)

Legend:
human 11β-HSD1 = biological target: T1, human 11β-HSD1 (Homo sapiens, UniProt P28845); experiment: 11β-HSD1 enzyme kinetics (apparent KM and Vmax) in microsomes; assay type: biochemical
T1 construct: expressed in transfected cells
Procedure: Microsomes were prepared as described earlier with minor modifications ([38]). Briefly, HEK-293 cells stably expressing human 11β-HSD1 and H6PDH were cultured until they reached confluence. Then, they were washed with ice-cold PBS and resuspended to a final concentration of ∼2 × 10^7 cells/ml in ice-cold buffer A [50 mM Tris (pH 7.5), 1 mM EDTA, 100 mM NaCl]. Typically, 6 ml of this suspension were prepared, corresponding to 1.2 × 10^8 cells. Following homogenization with 20 strokes in a glass potter on ice, the preparation was sonicated and centrifuged (9.000 g, 4°C for 30 min). The supernatant was removed and subjected to ultracentrifugation at 105,000 g, 4°C for 70 min. The obtained pellet was resuspended in buffer B [20 mM Tris (pH 7.5), 1 mM EDTA, 10% glycerol] and the ultracentrifugation step repeated. The microsomal fraction was again resuspended in buffer B and the total protein concentration determined using BCA assay ([39]). The microsomes were immediately frozen on dry ice and stored at −80°C.
Microsomes (1–20 μg) expressing 11β-HSD1 and H6PDH were incubated for 20 min with 1 mM of NADPH, 2 mM of glucose-6-phosphate, 0.1 units of glucose-6-phosphate dehydrogenase (from Saccharomyces cerevisiae), and different concentrations (62.5–2,000 nM) of 7k27OHC, adapted to a total assay volume of 50 μl with TS2 buffer [100 mM NaCl, 1 mM EGTA, 1 mM EDTA, 1 mM MgCl2, 250 mM sucrose, 20 mM Tris/HCl (pH 7.4)]. Oxysterols were extracted by mixing the samples with ice-cold ethyl acetate containing 100 nM deuterium-labeled 7β27OHC as internal standard and 1.5% (v/v) BHT/TPP solution as antioxidant. […] After reconstitution in 50 μl of methanol:ultra-pure water (1:1, v/v), the samples were centrifuged (4°C, 16,000 g for 10 min) and analyzed by UHPLC-MS/MS.
The substrate conversion was kept below 30% in all reactions. Apparent kinetic parameters (KM and Vmax) were determined by nonlinear regression and under the assumption of Michaelis-Menten kinetics. […]

11β-HSD2 = biological target: T2, 11β-HSD2 (Homo sapiens, UniProt P80365); experiment: 11β-HSD2 enzyme kinetics (apparent KM and Vmax) in HEK-293 cell lysate; assay type: biochemical
T2 construct: expressed in transfected cells
T2 sequence (P80365 1-405): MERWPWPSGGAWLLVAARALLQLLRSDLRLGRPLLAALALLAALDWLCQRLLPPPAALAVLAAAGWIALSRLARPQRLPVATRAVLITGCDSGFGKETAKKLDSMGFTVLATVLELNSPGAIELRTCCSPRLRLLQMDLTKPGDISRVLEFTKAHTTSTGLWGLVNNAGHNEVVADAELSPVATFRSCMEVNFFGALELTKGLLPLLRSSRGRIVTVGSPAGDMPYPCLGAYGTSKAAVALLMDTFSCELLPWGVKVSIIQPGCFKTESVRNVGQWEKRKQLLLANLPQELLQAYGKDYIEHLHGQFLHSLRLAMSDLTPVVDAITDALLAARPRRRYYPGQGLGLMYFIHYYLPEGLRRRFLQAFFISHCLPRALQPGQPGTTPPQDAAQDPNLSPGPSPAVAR
Procedure: For 11β-HSD2 activity measurements, 0.8 μg of HEK-293 cell lysate stably expressing 11β-HSD2 was incubated with different concentrations (50–800 nM) of 7β27OHC and 500 μM of NAD^+ for 10–30 min. Oxysterols were extracted as described in the 11β-HSD-dependent metabolism of 7-oxygenated 27OHCs in intact cells section.
The substrate conversion was kept below 30% in all reactions. Apparent kinetic parameters (KM and Vmax) were determined by nonlinear regression and under the assumption of Michaelis-Menten kinetics. Data (mean ± SD) were obtained from three independent experiments.

[1] = oxoreduction of substrate by 11β-HSD1, microsomes
[2] = oxidation of substrate by 11β-HSD2, cell lysate

T1 sequence (P28845 whole entry): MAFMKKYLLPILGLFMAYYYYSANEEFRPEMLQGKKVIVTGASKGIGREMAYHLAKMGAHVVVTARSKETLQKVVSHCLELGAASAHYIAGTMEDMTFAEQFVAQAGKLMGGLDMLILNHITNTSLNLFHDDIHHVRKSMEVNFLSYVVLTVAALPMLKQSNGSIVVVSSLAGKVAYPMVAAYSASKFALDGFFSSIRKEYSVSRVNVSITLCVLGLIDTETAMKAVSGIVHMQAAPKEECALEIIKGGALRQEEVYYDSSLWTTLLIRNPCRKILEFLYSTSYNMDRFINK

Structure (SMILES)	KMapp (human 11β-HSD1; [1]) [nM]	Vmax app (human 11β-HSD1; [1])	Affinity of 11β-HSD1, times higher than for other endogenous substrates (human 11β-HSD1; versus cortisone, 11-DHC, 7kC, 7oxoLCA)	KMapp (11β-HSD2; [2]) [nM]	Vmax app (11β-HSD2; [2])	Substrate affinity of 11β-HSD2, times higher than for cortisol (11β-HSD2; versus cortisol KMapp ∼200 nM) [times]
CC(CO)CCC[C@@H](C)[C@H]1CC[C@H]2[C@@H]3C(=O)C=C4C[C@@H](O)CC[C@]4(C)[C@H]3CC[C@]12C (stereo partly drawn) [7k27OHC, 7-keto,27-hydroxycholesterol]	39 ± 12	4.3 ± 0.2 nmol·h^−1·mg total protein^−1	6-25 times	–	–	–
CC(CO)CCC[C@@H](C)[C@H]1CC[C@H]2[C@@H]3[C@@H](O)C=C4C[C@@H](O)CC[C@]4(C)[C@H]3CC[C@]12C (stereo partly drawn) [7β27OHC, 7β,27-dihydroxycholesterol]	–	–	–	56 ± 11	10 ± 0.4 nmol·h^−1·mg total protein^−1	~4
